The values below are quoted from earlier work in publication PMC10757118, “HS‐10352 in hormone receptor‐positive, HER2‐negative advanced breast cancer: A phase 1 dose‐escalation trial” (Cancer Medicine, 2023).

The test system of series [1] is PIK3CA‐mutant breast cancer. Details: method as in PMID 29066505. Particulars: PIK3CA‐mutant breast cancer patients ref 31.
Series [2] deals with PIK3CA‐mutant, HR‐positive, HER2‐negative breast cancer. Details: method as in ref 33 = [33]; 33 Juric D , Kalinsky K , Oliveira M , et al. Abstract OT1‐08‐04: a first‐in‐human phase Ia dose escalation study of GDC‐0077, a p110a‐selective and mutant‐degrading PI3K inhibitor, in patients with P. Particulars: single agent, HER2‐negative breast cancer patients ref 33.
In series [3] the test system is ER‐positive, HER2‐negative breast cancer. Details: method as in PMID 29401002. Conditions: monotherapy, HER2‐negative breast cancer patients ref 19.
Series [4] deals with HR‐positive, HER2‐negative breast cancer with altered AKT pathways. On the set-up: method as in ref 35 = [35]; 35 Turner N , Oliveira M , Howell SJ , et al. Abstract GS3‐04: GS3‐04 Capivasertib and fulvestrant for patients with aromatase inhibitor‐resistant hormone receptor‐positive/human epidermal growth fact. Particulars: CAPItello‐291, altered AKT pathways ref 35.

On to `NC1(C(=O)N[C@@H](CCO)c2ccc(Cl)cc2)CCN(c2ncnc3[nH]ccc23)CC1` [Capivasertib], for which the ORR in series [1] is reported as 4%.

With `C[C@H](Nc1ccc2c(c1)OCCn1cc(N3C(=O)OC[C@H]3C(F)F)nc1-2)C(N)=O` [GDC‐0077], the “confirmed ORR” value in series [2] is 20%.

Regarding `Cc1nc(NC(=O)N2CCC[C@H]2C(N)=O)sc1-c1ccnc(C(C)(C)C(F)(F)F)c1` [alpelisib], in series [3], the ORR is 4.3%.

As to `C[C@]12CC[C@@H]3c4ccc(O)cc4C[C@@H](CCCCCCCCC[S+]([O-])CCCC(F)(F)C(F)(F)F)[C@H]3[C@@H]1CC[C@@H]2O` (some centres unmarked) [fulvestrant without capivasertib], in series [4], the ORR is 9.7% and the “median PFS” value is listed as 3.1 months.
